In PubChem BioAssay (NCI):
Several values for one entry are separate records, joined by “and”; a condition that tells them apart may be missing. Equal entries are not always repeated.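 Values below derive from 48-hour exposures of cells grown in 96-well plates, with endpoints linearly interpolated between the two concentrations bracketing the appropriate inhibition level. Abbreviation: GI50, concentration required for 50% inhibition of growth. TGI: total growth inhibition.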

Columns and labels:
Test in all cases: NCI-60 cell line screen, 48 h
A549 NSCLC = test system: A549 NSCLC
CAKI-1 renal = test system: CAKI-1 renal
K-562 leukemia = test system: K-562 leukemia
MALME-3M melanoma = test system: MALME-3M melanoma
SF-539 CNS = test system: SF-539 CNS
SK-MEL-5 melanoma = test system: SK-MEL-5 melanoma
SK-OV-3 ovarian = test system: SK-OV-3 ovarian
SNB-19 CNS = test system: SNB-19 CNS
SR leukemia = test system: SR leukemia
HS 578T breast = test system: HS 578T breast

Row | SMILES | TGI (A549 NSCLC) [µM] | TGI (CAKI-1 renal) | TGI (K-562 leukemia) [µM] | TGI (MALME-3M melanoma) | TGI (SF-539 CNS) [µM] | TGI (SK-MEL-5 melanoma) | TGI (SK-OV-3 ovarian) [µM] | TGI (SNB-19 CNS) [µM] | TGI (SR leukemia) [µM] | GI50 (A549 NSCLC) [µM] | GI50 (CAKI-1 renal) | GI50 (K-562 leukemia) | GI50 (MALME-3M melanoma) | GI50 (SF-539 CNS) | GI50 (SK-MEL-5 melanoma) [µM] | GI50 (SK-OV-3 ovarian) | GI50 (SNB-19 CNS) | GI50 (HS 578T breast) | TGI (HS 578T breast) [µM] | GI50 (SR leukemia) [µM]
1 | Cc1nc2cc(N)c(F)cc2[nH]1 | > 100 | > 100 µM | > 100 | > 100 µM | > 100 | > 100 µM | > 100 | > 100 | > 100 |  |  |  |  |  |  |  |  |  |  | 
2 | CCCCc1ccc(-n2c3nc(=O)n(C)c(=O)c-3nc3ccccc32)cc1 | 22 | 54.5 µM | 33.6 | 19.7 µM | 27.1 | 3.01 µM | > 100 | 21.2 |  |  |  |  |  |  |  |  |  |  |  | 
3 | NC1CCCCC1N.O=S(=O)([O-])CCCN1CCOCC1.O=S(=O)([O-])CCCN1CCOCC1.[Pt+4] | > 100 | > 85.8 µM | 30.5 | 22.5 µM | > 100 | 22.2 µM | > 100 | > 100 |  | 4.72 | 5.01 µM | 7.29 µM | 5.23 µM | 27.5 µM | 9.83 | > 100 µM | 25.7 µM |  |  | 
4 | CCCCCCCCCCC(O)C1CCC(C(O)CCC(O)C2CCC(CCCCCCC[C@H](O)CC3=C[C@@H](C)OC3=O)O2)O1 (stereo partly specified) | > 100 | > 100 µM | > 100 | > 100 µM | > 100 | > 64.3 µM | > 66.1 | > 88.3 | > 100 | 8.66 |  | 2.18 µM |  |  | 5.97 |  |  |  |  | 
5 | COC1OC(C)C(O)CC1OS(=O)(=O)c1ccc(C)cc1 (stereo unspecified) | > 100 | > 100 µM | > 100 | > 100 µM | > 100 | > 100 µM | > 100 | > 100 |  |  |  |  |  |  |  |  |  |  |  | 
6 | CCOC(=O)C1=C(Nc2ccc(Cl)cc2Cl)OC/C1=N\NS(=O)(=O)c1ccc(C)cc1 | > 100 | > 100 µM | > 100 | > 100 µM | > 100 | > 100 µM | > 100 | > 100 | > 100 |  |  |  |  |  |  |  |  |  |  | 
7 | CCCC(C)C[C@@H](C)CC(C)/C=C(\C)c1oc(=O)c(C)c(O)c1C (stereo partly specified) (tested in a mixture with another compound) | 34 | 28.1 µM |  | 9.17 µM | 30.1 |  |  | 28 |  |  |  |  |  |  |  |  |  |  |  | 
8 | Cc1cc(C)nc(NS(=O)(=O)c2ccc(Nc3c4ccc(Cl)cc4nc4c(C(=O)Nc5ccc(S(=O)(=O)N=C(N)N)cc5)cccc34)cc2)n1 |  |  | > 100 | > 100 µM | > 100 |  | > 100 | > 100 |  |  |  |  |  |  |  |  |  |  |  | 
9 | O=P([O-])(O)OP(=O)([O-])O.[NH-][C@@H]1CCCC[C@H]1[NH-].[Pt+4] | > 100 | > 100 µM and 41.7 µM | > 100 | > 100 µM and 29 µM | > 100 | > 100 µM and 14.9 µM | > 100 | > 100 |  | 10 | 6.41 µM and 5.25 µM | 26.1 µM and 4.09 µM | 11.7 µM and 2.98 µM | 18.6 µM and 8.47 µM |  | 98.4 µM and 37.4 µM | 47.9 µM and 14.9 µM | > 100 µM and 56.5 µM | > 100 | 
10 | O=C(Nc1cc[c]([Sb](=[O])([OH])[OH])cc1)c1ccccc1 | > 100 | > 100 µM | > 100 | > 100 µM |  | > 100 µM |  | > 100 | > 100 | > 100 | > 100 µM | > 100 µM | > 100 µM |  | > 100 |  | > 100 µM | > 100 µM | > 100 | > 100
11 | O=C([O][Hg][CH2]C1COCC([CH2][Hg][O]C(=O)c2ccccc2)O1)c1ccccc1 (stereo unspecified) | 27.2 | 3.21 µM | 11.9 |  | 51.8 | 24.6 µM | 43 | 40 |  | 12.6 | 1.61 µM | 2.61 µM |  | 23.7 µM | 11.9 | 21.8 µM | 19.2 µM | 19.8 µM | 65.8 | 
12 | Cc1cc(N2CCCC2)nc(NC2CCCC(Nc3ccnc4cc(Cl)ccc34)C2)n1 (stereo unspecified) |  |  |  |  | 2.62 | 3.09 µM | 3.49 | 3.44 |  |  |  |  |  | 1.26 µM | 1.69 | 1.86 µM | 1.46 µM | 2 µM | 4.72 | 
13 | CCc1nc(N)nc(C(=O)NCCNC(=O)c2nc(N)nc(CC)c2C)c1C | > 100 | > 100 µM | > 100 | > 100 µM | > 100 | > 100 µM |  | > 100 |  |  |  |  |  |  |  |  |  |  |  | 
14 | Nc1ncn(C2C=C(CO)C(O)C2O)c(=O)n1 (stereo unspecified) | > 100 | > 100 µM | > 100 | > 100 µM | > 100 | > 100 µM | > 100 | > 100 | > 100 |  |  |  |  |  |  |  |  |  |  | 
15 | COC(=O)C(=O)C(C#N)c1ccc(CC#N)cc1 (stereo unspecified) | > 100 | > 100 µM | > 100 | > 100 µM | > 100 |  | > 100 | > 100 | > 100 |  |  |  |  |  |  |  |  |  |  | 
16 | O=c1[nH]c2c3ccccc3ccc2c2cc3c(cc12)OCO3 | > 100 | > 100 µM | > 100 | > 100 µM | > 100 | > 100 µM | > 100 | > 100 |  |  |  |  |  |  |  |  |  |  |  | 
17 | O=C([CH-]C(=O)c1ccccc1)c1ccccc1.O=C([CH-]C(=O)c1ccccc1)c1ccccc1.O=C([CH-]C(=O)c1ccccc1)c1ccccc1.[OH3+].[Y+3] | 38.9 | 26.8 µM | 17.8 | 47.2 µM | 43.1 | 13.9 µM | 40 | 56.4 |  | 13.2 | 5.68 µM | 3.6 µM | 14 µM | 9.27 µM | 3.72 | 11.2 µM | 8.04 µM |  |  | 
18 | CCn1c(O)c(C=N)c(=O)n(CC)c1=O | > 100 | > 100 µM | > 100 | > 100 µM | > 100 | > 100 µM | > 100 | > 100 |  |  |  |  |  |  |  |  |  |  |  | 
19 | COc1ccc2c(c1)OC1=C(C(=O)OC1)C2c1cc(OC)c(OC)c(OC)c1 (stereo unspecified) | > 100 |  | > 100 | 87.6 µM |  | 61.2 µM | > 49.5 | > 100 |  | 0.61 |  | 0.199 µM | 0.468 µM |  | 0.363 | 0.392 µM | 0.58 µM | 0.324 µM | > 100 | 
